27 molecules from patent US9051310B2, “Nicotinamide derivative or salt thereof” (FUJIFILM Corporation, priority 2011, dated 2015) can be followed below.

Where only a bound is given, the exact number is not on record here.

Usually IC50 stands for the concentration needed to halve the response being measured.

The assay has as its target T1, glutathione S-transferase (GST)-linked full-length human Syk protein (Homo sapiens, UniProt P43405).
T1 construct: glutathione S-transferase (GST)-linked full-length human Syk protein; purchased Carna Biosciences; host or cells: Baculovirus expression system
The assay can be described thus: Syk enzyme assay. It is filed as biochemical. To be noted: 0.83 nM Syk, time-resolved fluorescence; read-out: IC50 of Syk-inhibitory activity. As for the experimental part:
A glutathione S-transferase (GST)-linked full-length human Syk protein (Carna Biosciences), which had been generated using a Baculovirus expression system, was used in the Syk enzyme assay.
7.5 μl of a reaction solution (0.83 nM Syk, 20 mM HEPES, 10 mM MgCl2, 50 mM NaCl, 2 mM DTT, 0.05% BSA, pH 7.0) containing a Syk protein and a predetermined concentration of a test compound was shaken for 2 minutes, and it was then left at rest at room temperature for 13 minutes. Thereafter, 0.5 μM substrate peptide (Biotin-[…]-NH2) and 5 μL of a solution containing 67.5 μM ATP were added to the reaction solution, and the obtained mixture was then shaken for 2 minutes. The reaction solution was further left at rest at room temperature for 40 minutes, so as to carry out an enzyme reaction.
Thereafter, 50 μL of a reaction termination solution [60 nM APC-SA, 0.45 μg/mL Eu-PT66, 30 mM HEPES (pH 7.0), 150 mM KF, 30 mM EDTA, 0.15% BSA, 0.075% Tween20] containing Allophycocyanin-Streptavidin (APC-SA; PerkinElmer) and an Eu-W1024-labeled anti-phosphotyrosine PT66 antibody (Eu-PT66; PerkinElmer) was added to the reaction solution to terminate the enzyme reaction. At the same time, the reaction solution was left at rest at room temperature for 1 hour, so as to carry out an antigen-antibody reaction. Thereafter, using EnVision (PerkinElmer), the level of time-resolved fluorescence was measured at 615 nm and 665 nm, so that the phosphorylation of the substrate peptide was measured.
The following are used in Table 5 to denote standards for evaluating IC50 of Syk-inhibitory activity. • A: Up to 10 nM • B: 10 to 50 nM • C: 50 to 100 nM
Turning to `Cc1cnn(-c2cncc(Nc3nc(N[C@H](C4CC4)[C@H](C)N)c(F)cc3C(N)=O)c2)n1` [Example 2-532, 6-(((1R,2S)-2-amino-1-cyclopropylpropyl)amino)-5-fluoro-2-((5-(4-methyl-2H-1,2,3-triazol-2-yl)pyridin-3-yl)amino)nicotinamide], the IC50 is less than 10 nM.
On to `C[C@H](N)[C@H](Nc1nc(Nc2cnc3c(c2)c(N(C)C)nn3C)c(C(N)=O)cc1F)C1CC1` [Example 2-290, 6-(((1R,2S)-2-amino-1-cyclopropylpropyl)amino)-2-((3-(dimethylamino)-1-methyl-1H-pyrazolo[3,4-b]pyridin-5-yl)amino)-5-fluoronicotinamide], for which the concentration for half-maximal inhibition (IC50) lay in the range of 10 to 50 nM.
Turning to `COCCn1nc(OC(F)F)c2cc(Nc3nc(N[C@@H](CN)CC(C)C)c(F)cc3C(N)=O)ccc21` [Example 2-542, (R)-6-((1-amino-4-methylpentan-2-yl)amino)-2-((3-(difluoromethoxy)-1-(2-methoxyethyl)-1H-indazol-5-yl)amino)-5-fluoronicotinamide], the IC50 was less than 10 nM.
For `COCCn1ncc2cc(Nc3nc(N[C@H](c4cc(F)cc(F)c4)[C@H](C)N)c(F)cc3C(N)=O)ccc21` [Example 2-550, 6-(((1R,2S)-2-amino-1-(3,5-difluorophenyl)propyl)amino)-5-fluoro-2-((1-(2-methoxyethyl)-1H-indazol-5-yl)amino)nicotinamide], the IC50 is less than 10 nM.
In the case of `NC(=O)c1cc(F)c(N[C@@H]2CCCC[C@@H]2N)nc1Nc1ccc(F)c(F)c1` [Example 2-447, 6-(((1R,2S)-2-aminocyclohexyl)amino)-2-((3,4-difluorophenyl)amino)-5-fluoronicotinamide], the IC50 is less than 10 nM.
As to `CCC[C@@H](Nc1nc(Nc2cnc(NC)c(F)c2)c(C(N)=O)cc1F)[C@H](C)N` [Example 2-277, 6-(((2S,3R)-2-aminohexan-3-yl)amino)-5-fluoro-2-((5-fluoro-6-(methylamino)pyridin-3-yl)amino)nicotinamide], the IC50 lay within 10 to 50 nM.
For `CCCC[C@@H](Nc1nc(Nc2cccc3c2cnn3CCOC)c(C(N)=O)cc1F)[C@H](C)N` [Example 2-307, 6-(((2S,3R)-2-aminoheptan-3-yl)amino)-5-fluoro-2-((1-(2-methoxyethyl)-1H-indazol-4-yl)amino)nicotinamide], the IC50 was less than 10 nM.
As for `COc1ccc([C@@H](Nc2nc(Nc3ccc4ncccc4c3)c(C(N)=O)cc2F)[C@H](C)N)cc1` [Example 2-337, 6-(((1R,2S)-2-amino-1-(4-methoxyphenyl)propyl)amino)-5-fluoro-2-(quinolin-6-ylamino)nicotinamide], the IC50 lay within 50 to 100 nM.
Turning to `CC[C@H](N)[C@@H](C)Nc1nc(Nc2ccc3[nH]nc(N(C)C)c3c2)c(C(N)=O)cc1F` [Example 2-495, 6-(((2R,3S)-3-aminopentan-2-yl)amino)-2-((3-(dimethylamino)-1H-indazol-5-yl)amino)-5-fluoronicotinamide], the IC50 was less than 10 nM.
Consider `COc1cc(Nc2nc(N[C@H](C3CCC3)[C@H](C)N)c(F)cc2C(N)=O)ccc1C` [Example 2-30, 6-(((1R,2S)-2-amino-1-cyclobutylpropyl)amino)-5-Fluoro-2-((3-methoxy-4-methylphenyl)amino)nicotinamide], for which the IC50 was less than 10 nM.
To `CC[C@H](N)[C@@H](CC)Nc1nc(Nc2cnc3c(c2)c(OC)nn3C)c(C(N)=O)cc1F` [Example 2-258, 6-(((3R,4S)-4-aminohexan-3-yl)amino)-5-fluoro-2-((3-methoxy-1-methyl-1H-pyrazolo[3,4-b]pyridin-5-yl)amino)nicotinamide] belongs 10 to 50 nM; to `CCCC[C@@H](Nc1nc(Nc2cccc3c2cnn3CC)c(C(N)=O)cc1F)[C@H](C)N` [Example 2-99, 6-(((2S,3R)-2-aminoheptan-3-yl)amino)-2-((1-ethyl-1H-indazol-4-yl)amino)-5-fluoronicotinamide], less than 10 nM; to `CC[C@@H](Nc1nc(Nc2ccc3[nH]nc(N(C)C)c3c2)c(C(N)=O)cc1F)[C@H](C)N` [Example 2-493, 6-(((2S,3R)-2-aminopentan-3-yl)amino)-2-((3-(dimethylamino)-1H-indazol-5-yl)amino)-5-fluoronicotinamide], less than 10 nM.
Regarding `CC(C)C[C@@H](Nc1nc(Nc2cc(F)c3c(c2)c(N(C)C)nn3C)c(C(N)=O)cc1F)[C@H](C)N` [Example 2-190, 6-(((2S,3R)-2-amino-5-methylhexan-3-yl)amino)-2-((3-(dimethylamino)-7-fluoro-1-methyl-1H-indazol-5-yl)amino)-5-fluoronicotinamide], the IC50 is less than 10 nM.
For `COc1cc(Nc2nc(N[C@H](c3ccccc3F)[C@H](C)N)c(F)cc2C(N)=O)cc(OC)n1` [Example 2-411, 6-(((1R,2S)-2-amino-1-(2-fluorophenyl)propyl)amino)-2-((2,6-dimethoxypyridin-4-yl)amino)-5-fluoronicotinamide], the IC50 is less than 10 nM.
Regarding `C[C@H](N)[C@H](Nc1nc(Nc2ccc3c(c2)c(OC(F)F)nn3C)c(C(N)=O)cc1F)C1CC1` [Example 2-171, 6-(((1R,2S)-2-amino-1-cyclopropylpropyl)amino)-2-((3-(difluoromethoxy)-1-methyl-1H-indazol-5-yl)amino)-5-fluoronicotinamide], the IC50 is less than 10 nM.
The figure for `NC(=O)c1cc(F)c(N[C@@H]2CCCC[C@@H]2N)nc1Nc1cccc(OC(F)(F)F)c1` [Example 2-444, 6-(((1R,2S)-2-aminocyclohexyl)amino)-5-fluoro-2-((3-(trifluoromethoxy)phenyl)amino)nicotinamide] is less than 10 nM; for `COc1ncc(Nc2nc(N[C@H](CC(C)C)[C@H](C)N)c(F)cc2C(N)=O)cc1-n1nccn1` [Example 2-112, 6-(((2S,3R)-2-amino-5-methylhexan-3-yl)amino)-5-fluoro-2-((6-methoxy-5-(2H-1,2,3-triazol-2-yl)pyridin-3-yl)amino)nicotinamide] it is 10 to 50 nM.
On to `C[C@H](N)[C@H](Nc1nc(Nc2ccc(F)cc2)c(C(N)=O)cc1F)C1CCC1` [Example 2-60, 6-(((1R,2S)-2-amino-1-cyclobutylpropyl)amino)-5-fluoro-2-((4-fluorophenyl)amino)nicotinamide], for which the IC50 lay in the range of 10 to 50 nM.
As for `CCn1ncc2cc(Nc3nc(N[C@H](C4CCCCC4)[C@H](C)N)c(F)cc3C(N)=O)ccc21` [Example 2-264, 6-(((1R,2S)-2-amino-1-cyclohexylpropyl)amino)-2-((1-ethyl-1H-indazol-5-yl)amino)-5-fluoronicotinamide], the IC50 is 10 to 50 nM.
Consider `Cc1ncc(Nc2nc(N[C@@H]3CC[C@@H](OCc4ccccc4)C[C@@H]3N)c(F)cc2C(N)=O)cc1-n1nccn1` (racemic) [Example 2-528, Mixture of 6-((2-amino-4-(benzyloxy)cyclohexyl)amino)-5-fluoro-2-((6-methyl-5-(2H-1,2,3-triazol-2-yl)pyridin-3-yl)amino)nicotinamide (1R,2S,4R), (1S,2R,4S)], for which the IC50 is 50 to 100 nM.
The figure for `Cc1ncc(Nc2nc(N[C@H](Cc3ccccc3)[C@H](C)N)c(F)cc2C(N)=O)cc1F` [Example 2-426, 6-(((2R,3S)-3-amino-1-phenylbutan-2-yl)amino)-5-fluoro-2-((5-fluoro-6-methylpyridin-3-yl)amino)nicotinamide] is 10 to 50 nM.
For `CC[C@H](N)[C@H](Nc1nc(Nc2cc(OC)cc(OC)c2)c(C(N)=O)cc1F)C1CC1` [Example 2-361, 6-(((1R,2S)-2-amino-1-cyclopropylbutyl)amino)-2-((3,5-dimethoxyphenyl)amino)-5-fluoronicotinamide], the IC50 lay in the range of 10 to 50 nM.
Consider `COc1cc(Nc2nc(N[C@H](c3ccc(C(F)(F)F)cc3)[C@H](C)N)c(F)cc2C(N)=O)cc(OC)n1` [Example 2-355, 6-(((1R,2S)-2-amino-1-(4-(trifluoromethyl)phenyl)propyl)amino)-2-((2,6-dimethoxypyridin-4-yl)amino)-5-fluoronicotinamide], for which the IC50 was less than 10 nM.
Turning to `Cc1ncc(Nc2nc(N[C@@H]3CCC(F)(F)C[C@@H]3N)c(F)cc2C(N)=O)cc1-n1nccn1` (racemic) [Example 2-564, Mixture of 6-((2-amino-4,4-difluorocyclohexyl)amino)-5-fluoro-2-((6-methyl-5-(2H-1,2,3-triazol-2-yl)pyridin-3-yl)amino)nicotinamide (1R,2S), (1S,2R)], the IC50 is 10 to 50 nM.
To `CC[C@@H](Nc1nc(Nc2ccc3c(c2)c(NCCOC)nn3C)c(C(N)=O)cc1F)[C@H](C)N` [Example 2-463, 6-(((2S,3R)-2-aminopentan-3-yl)amino)-5-fluoro-2-((3-((2-methoxyethyl)amino)-1-methyl-1H-indazol-5-yl)amino)nicotinamide] belongs 10 to 50 nM; to `CC(C)[C@@H](Nc1nc(Nc2cncc(C3CC3)c2)c(C(N)=O)cc1F)[C@H](C)N` [Example 2-111, 6-(((2S,3R)-2-amino-4-methylpentan-3-yl)amino)-2-((5-cyclopropylpyridin-3-yl)amino)-5-fluoronicotinamide], 10 to 50 nM.
